{
  "source": "patent US20230054976A1",
  "about": "“METHODS FOR INHIBITION OF ALPHA-SYNUCLEIN mRNA USING SMALL MOLECULES” (The Scripps Research Institute, priority 2019, published 2023)",
  "key": {"[1]": {"target": "T1, IRP-1:SNCA IRE RNA complex (Homo sapiens, UniProt P21399)", "T1 construct": "purchased Abnova", "experiment": "In vitro displacement of IRPs by gel mobility shift assay, IRP-1", "type": "binding", "conditions": "0.2, 1, 5 μM; pre-incubation 1-60 min", "protocol": "(§1) In vitro displacement of IRPs by gel mobility shift assays. SNCA IRE hairpin RNA was 5′-end labeled with [γ-^32P]ATP as previously described^5. Approximately, 2 pmoles of ^32P labeled RNA per 20 μL reaction was folded in 1× Assay Buffer by heating at 65° C. for 5 min and slowly cooling to room temperature. As indicated, vehicle, Synucleozid (0.2, 1, 5 μM) or unlabeled IRE RNA (1 μM, folded as described above and used as a positive control) was added to the samples, and the samples were incubated at room temperature for varying amounts of time (1-60 min as indicated). Then, 0.5 μg IRP-1 or IRP-2 (Abnova) was added, and the samples were incubated at room temperature for an additional 30 min. An equal volume of 2× Native Gel Loading Buffer (2×TBE, 50% Glycerol, 0.025% (w/v) Bromophenol blue and Xylene cyanol FF) was added to each sample. Note, Native Gel Loading Buffer added to Synucleozid-treated samples was supplemented with the same concentration of Synucleozid as in the sample to maintain a constant concentration. IRP:IRE complexes and free IRE were separated on a native 15% polyacrylamide prepared 1×TBE supplemented with the same concentration of Synucleozid as in compound-treated samples, and imaged using a Bio-Rad PMI phosphorimager. Images were quantified with BioRad's Quantity One software."}, "tRNA": {"test_system": "tRNA", "experiment": "Competitive binding assay (2-AP), tRNA", "experimental": "(§2) I and I0 are the observed fluorescence intensity in the presence and absence of 2-AP RNA. Δε is the difference between the fluorescence intensity in the absence and presence of infinite 2-AP RNA. […] EC50 was calculated from Eq. (1). […] The change of fluorescence intensity was fit to Eq. (2):\n(§3) θ is the percentage of 2-AP RNA bound. [RNA] is the concentration of 2-AP RNA. EC50 is the EC50 of Synucleozid determined in the assay above. [Synucleozid] is the concentration of Synucleozid. Cc is the concentration of competitive RNA. Kd is competitive dissociation constant and A is a constant."}, "[2]": {"target": "T2, IRP-2:SNCA IRE RNA complex (Homo sapiens, UniProt P48200)", "T2 construct": "purchased Abnova", "experiment": "In vitro displacement of IRPs by gel mobility shift assay, IRP-2", "type": "binding", "conditions": "0.2, 1, 5 μM; pre-incubation 1-60 min", "protocol": "as §1"}, "[3]": {"test_system": "RNA-2 to 5 (other non-canonically paired regions replaced with base pairs)", "experiment": "Competitive binding assay (2-AP), RNA-2 to 5", "experimental": "as §2, §3"}, "[4]": {"test_system": "32P-labeled SNCA IRE hairpin RNA", "experiment": "RNase H-mediated ASO-Bind-Map", "type": "binding, human", "protocol": "RNase H-mediated ASO-Bind-Map. SNCA IRE hairpin RNA was 5′-end labeled with [γ-^32P]ATP and T4 kinase as previously described^5. Approximately, 5 pmoles of ^32P labeled IRE RNA per reaction was folded in 1× RNase H buffer (New England Biolabs) by heating to 65° C. for 5 min and slowly cooling to room temperature. Serially diluted concentrations of Synucleozid were added to the RNA solutions and incubated at room temperature for 30 min. One of ASOs was then added to a final concentration of 500 nM, followed by incubation at room temperature for 30 min. Next, 0.05 U/μL RNase H (New England Biolabs) was added into each RNA-ligand mixture, and the samples were incubated for 20 min. Reactions were quenched by incubating at 65° C. for 20 min. T\nTwo ladders were generated to identify the positions of RNase H cleavage. Each guanosine (G) residue was identified by using RNase T1 under denaturing conditions as described above. Likewise, a hydrolysis ladder was generated as described above. Reactions were stopped by addition of an equal volume of 2× Loading Buffer. Fragments were separated on a denaturing 15% polyacrylamide gel and imaged using a BioRad PMI phosphorimager. Images were quantified with BioRad's QuantityOne software."}, "[5]": {"test_system": "SH-SY5Y cells transcriptome", "experiment": "RNA-Seq transcriptome-wide differential expression", "type": "cell-based, human", "conditions": "48 h; Synucleozid 1.5 μM vs vehicle; siRNA 0.1 μM vs scrambled control", "protocol": "RNA-Seq. SH-SY5Y cells were treated or transfected as described above for 48 h with Synucleozid (1.5 μM) and siRNA (0.1 μM). Total RNA was extracted using a miRNeasy Mini Kit (Qiagen, as described above) with on-column DNase I treatment. Qubit 2.0 Fluorometer (Invitrogen) was used for total RNA quantification. Quality of total RNA was assessed by using an Agilent Technologies 2100 Bioanalyzer RNA nano chip. Samples which have RNA integrity number >8.0 were used in future experiments. Probes provided by the NEBNext rRNA depletion module (catalog no.: E6310L, New England Biosciences) were used to deplete rRNA on approximate 500 ng of total RNA according to the manufacturer's recommendations. Library preparation was done with NEBNext Ultra 11 Directional RNA kit (catalog no.: E7760, New England Biosciences) according to the manufacturer's instructions. RNA samples were heated to 94° C. and simultaneously chemically fragmented in a divalent cation buffer for 15 min. Conversion of fragmented RNA to the first strand of cDNA was done with random hexamer priming and reverse transcription. To synthesize second strand, RNA template was removed and dUTP in place of dTTP was incorporated. […] Every sample with a base quality score >Q30 (<1 error per 1000 bp) generated around 20-25 million reads. Transcript abundance from these RNA samples were quantified using Kallisto (12). […]"}, "PrP 5′ UTR": {"test_system": "PrP 5′ UTR", "conditions": "SH-SY5Y cells"}},
  "data": [
    {"smiles": "N=C(N)c1ccc(Nc2ccc(-c3cc4ccc(C(=N)N)cc4[nH]3)cc2)cc1", "note": "[Synucleozid A]", "values": [
      {"measurement": "effect on binding of IRP-1 to SNCA IRE RNA", "setting": "[1]", "value": "Neither Synucleozid concentration (0.2, 1, 5 μM) nor pre-incubation time (1, 5, 15, 60 min) has any significant effect"},
      {"measurement": "competitor RNA concentration needed for recovery of 2-AP emission", "setting": "tRNA", "value": "> 100", "unit": "µM"},
      {"measurement": "effect on binding of IRP-2 to SNCA IRE RNA", "setting": "[2]", "value": "Neither Synucleozid concentration (0.2, 1, 5 μM) nor pre-incubation time (1, 5, 15, 60 min) has any significant effect"},
      {"measurement": "effect of mutation on Synucleozid binding", "setting": "[3]", "value": "no effect"},
      {"measurement": "protection from RNase H cleavage, ASOs hybridized with sites other than A bulge", "setting": "[4]; 1 μM", "value": "no protection from cleavage"},
      {"measurement": "protection of the IRE from RNase H cleavage", "setting": "[4]; 0.1, 1, and 10 μM, ASO (1-10) and ASO (40-50) overlap with the A bulge", "value": "only observed with ASOs whose binding sites overlap with the A bulge"},
      {"measurement": "genes unchanged / genes detected", "setting": "[5]", "value": "19979/20034"},
      {"measurement": "genes unchanged, percentage", "setting": "[5]", "value": 99.7, "unit": "%"},
      {"measurement": "effect on translation of luciferase fused to PrP 5′ UTR", "setting": "PrP 5′ UTR", "value": "no effect"}
    ]}
  ]
}
